Experimental data from patent US20250161238A1, “NMDAR Antagonists Prevent Ageing and Aging-Associated Conditions and Diseases Through Increasing 20S Proteasome Activity” (priority 2022, published 2025).
“Also recorded” adds a separate entry of the source.

Assays:
[1] = tested on: C. elegans; assay: NADP+ and NADPH+ amount in C. elegans; type: in vivo; details: 19th day
Excerpt: Therefore, the amount of NADP+ and NADPH+ were investigated in C. elagans.

[2] = tested on: mice; assay: Kondziela's inverted screen test in aged mice; type: in vivo; details: mice at 22 months
Excerpt: Kondziela's inverted screen test is one of tests which examine the muscle strength using all four limbs. Four limb-hanging test which is the Kondziella's inverted screen test represents a method to assess muscle strength using all four limbs grip and to determine the general condition during time. […] As a result, the test can provide important information about age-related neuromuscular decline.
The experimental protocols were approved by the Ethics Committee of Ankara University, Faculty of Medicine, Medical Sciences Experimental Research and Application Center (Date: Dec. 11, 2019 and Decision number: 2019-22-189). Adult (12-mounts-old) C57BL/6 mice (5 for each group) were used. The mice were housed at the Experimental Animal Research Laboratory of Ankara University Faculty of Medicine. Food and water were given without restriction. The ambient temperature was kept at 21±2° C., and locomotor activity tests were performed at this temperature. The animals were housed in a room with a 12-hour light/dark cycle. The procedures in the study were performed in accordance with the Ankara University Animal Care Committee according to international guidelines. Memantine (Sigma-Aldrich) was administered orally at 3 mg/Kg/per day with drinking water of one-year-old mice. Tests related to locomotor activities of the mice were recorded and available.
Inverted screen test described firstly Kondizela for muscle strength (Kondizela, 1964). The mouse was put on a center of the rectangular mesh screen (52 cm×32 cm) and the screen was rotated 180° over 2 seconds. The screen was held steadily 40-50 cm above a sawdust surface. Holding time were recorded for a maximum of 5 minutes. The inverted screen was scored previously by Deacon (Falling between 1-10 sec=1 Falling between 11-25 seconds=2 Falling between 26-60 seconds=3 Falling between 61-90 seconds=4 Falling after 90 seconds=5) (Deacon, 2013). According to previous studies, parameters such as Total mobility time % (Gleitz et al, 2017), the latency of falling time, and four limbs griping time (Roemers et al, 2019) were analyzed.

[3] = tested on: C. elegans; assay: C. elegans movements (non-moving, swimming); type: in vivo; details: 18th day
Procedure: Therefore, the movements of the C. elegans grown at 20° C. on standard nematode growth medium(NGM) plates shaked at constant speed at 200 rpm were recorded for 5 minutes on the 18th day. All C. elegans in plate well were individually followed and counted by three different eyes for 5 minutes. […] One of the basic movement of C. elegans in liquid is crawling while the other is swimming. Previously described that swimming is more energetically demanding for C. elegans than the crawling motion. In addition it was stated that having the ability to swim is related to locomotory fatigue, muscle mitochondrial oxidation, a transcriptional oxidative stress response, and changes in carbohydrate and fat metabolism. It was also known that the swimming ability of C. elegans is also related to pharyngeal, intestinal, neuronal functions and strong muscle into old age.
To sterilize the animals 300 μL of a 6 mM Fluorodeoxyuridine (FUDR) stock solution was added to 10 ml medium. During the monitoring of their life span, the worms were kept by shaking at a constant speed of 200 rpm. Locomotor activities of the worms were recorded and available.

[4] = tested on: NMDA receptor; details: cited from earlier work
[5] = tested on: mice with GD symptoms; details: cited from earlier work
[6] = tested on: human mesenchymal stem cells; assay: Differentiation markers of mesenchymal stem cells (western blot); type: cell-based; details: day 14
Excerpt: We investigated the differentiation of stem cells in the presence of memantine after cell passages using the simple differentiation method using the DMEM/F12, 10% FBS without coculture of mouse fibroblast (Yoo et all. 2020).
Cell were harvested at day 14 for western blot and the protein expression amounts of the differentiation markers cd44, cd73, and cd90 were investigated. […] Another indicator of the stem cell differentiation is the determination of the amounts of lipid droplet in the cell. Fourteen-day cell passage is caused to increase lipid in the cell. It was observed that memantine treatment has prevented the amount of lipid droplet (FIG. 36D).

CC12CC3CC(C)(C1)CC(N)(C3)C2 [memantine, 3,5-dimethyladamantan-1-amine]
NADP+ compared to C. elegans without treatment [1]: 2 folds | four fingers grip time [2]: more than two times | mobility time [2]: more than twice as much | time in the inverted frame (latency of falling, holding time) [2]: twice as long | number of C. elegans that can swim compared to without treatment [3]: 2,4 times | block of NR2C and NR2D Subunits [4]: preferentially blocks | effects at NR2A [4]: weak effects | potency at NR1A/2B [4]: intermediate potency | levels at which the mechanism of action is specific for antagonism of the NMDA receptor ([4]; does not affect other ligand-gated or Voltage gated channels): 1 to 10 µM | life span of mice with Gaucher disease symptoms ([5]; A/J, C3H/HeJ, DBA/2J, C57BL6/JolaHsd, CBE 25 mg/kg day): dramatically extended; also recorded: extend the lifespan | life span with memantine dose increased by 10 fold ([5]; mouse, in vivo): increases the life span of mice even more | increase in cd44 protein expression [6]: statistically significantly less | increase in cd73 protein expression [6]: statistically significantly less | increase in cd90 protein expression [6]: statistically significantly less
